We go through one compound from ChEMBL document CHEMBL6182916, “Unexpected Discovery of a Novel Triphenylphosphonium Alkylalcohol That Triggers Cancer Cell Death via Mitophagy and Ferroptosis” (J Med Chem, 2025).

A short description of data set [1]: Antiproliferative activity against human Osimertinib-resistant HCC827 cell assessed as inhibition of cell growth measured after 72 hrs by MTT assay. Format: functional, cell-based. (Formazan colour is commonly taken as a measure of viable cells.)
A further data set has as its system NCI-H1650. Kind of data set: Antiproliferative activity against human NCI-H1650 cells assessed as inhibition of cell growth measured after 72 hrs by MTT assay. The data set is classed as functional, cell-based. The following applies: NCI-H1650, 72 h.
Data set [2] is described as follows: Drug accumulation in mitochondria of human HCC827 cells at 10 uM incubated for 5 mins. Format: ADME. The following applies: hcc827, 5 min.
A short description of data set [3]: Drug accumulation in mitochondria of human HCC827 cells at 10 uM incubated for 10 mins in presence of CCCP by RP-HPLC-UV analysis. Particulars: hcc827, 10 min. Format: ADME.
The test system of data set [4] is Mitochondrial membrane. Put plainly: Induction of mitochondrial membrane depolarization in human HCC827 cells assessed as increase in J-monomer ratio at 0.125 to 0.5 uM incubated for 4 hrs by JC-1 staining based flow cytometric analysis. The following applies: dose 0.125-0.5 µM. Format: cell membranes.
The subject of data set [5] is Mitochondrial membrane. Put plainly: Induction of mitochondrial membrane depolarization in human HCC827 cells assessed as increase green fluorescence incubated for 4 hrs by JC-1 staining based confocal microscopy analysis. The data set is classed as cell membranes. The following applies: dose 0.125-0.5 µM.
For data set [6], the system named is HCC827. Kind of data set: Induction of mitochondrial dysfunction in human HCC827 cells assessed as suppression of maximal oxygen consumption rate incubated for 4 hrs by Seahorse XF96 extracellular flux analyzer. The data set is classed as functional, cell-based. The following applies: dose 0.125-5 µM.
The test system of the next data set is BEAS-2B. Put plainly: Induction of mitochondrial dysfunction in human BEAS-2B cells assessed as reduction in glycolytic reserve at 0.125 to 5 uM incubated for 4 hrs by Seahorse XF96 extracellular flux analyzer. Format: functional, cell-based. Particulars: dose 0.125-5 µM.
The test system of data set [7] is HCC827. Put plainly: Downregulation of VDAC1 expression level in human HCC827 cells 0.5 uM incubated for 3 to 24 hrs in presence of BFA by Western blot analysis. The following applies: time 3-24 hrs. The data set is classed as functional, cell-based. (A western blot detects proteins with antibodies after separation by electrophoresis.)
Data set [8] relates to HCC827. Kind of data set: Downregulation of VDAC1 expression level in human HCC827 cells 0.25 to 0.5 uM incubated for 24 hrs in presence of BFA by Western blot analysis. The following applies: dose 0.25-0.5 µM. Format: functional, cell-based.
Data set [9] deals with HCC827. Put plainly: Downregulation of TIMM23 expression level in human HCC827 cells at 0.5 uM by Western blot analysis. Format: functional, cell-based. The following applies: time 3-24 hrs.
For data set [10], the system named is HCC827. Kind of data set: Downregulation of TOMM20 expression level in human HCC827 cells at 0.5 uM incubated for 24 hrs in presence of Baf A1 by Western blot analysis. Format: functional, cell-based.
Data set [11] has as its system HCC827. Kind of data set: Induction of mitophagy in human HCC827 cells assessed as increase in LC3-II/LC-3-I ratio at 0.5 uM measured after 24 hrs in presence of Baf A1 by Western blot analysis. The data set is classed as functional, cell-based.
Data set [12] relates to HCC827. Put plainly: Induction of cell cycle arrest in human HCC827 cells assessed as accumulation of cells at G2 phase at 0.2 uM incubated for 24 hrs by PI staining based flow cytometry analysis (reference value: 7.15%). The data set is classed as functional. A general note: In flow cytometry, cells or beads pass a laser one at a time.
Data set [13] relates to HCC827. Kind of data set: Induction of cell cycle arrest in human HCC827 cells assessed as accumulation of cells at S phase at 0.1 uM incubated for 24 hrs by PI staining based flow cytometry analysis (reference value: 26.41%). Format: functional.
In data set [14] the test system is HCC827. Kind of data set: Induction of ROS generation in human HCC827 cells at 1 uM incubated for 4 hrs in presence of VC by DCFH-DA staining based by absorbance based laser confocal microscopic analysis. Format: functional, cell-based.
The subject of data set [15] is HCC827. Put plainly: Induction of ferroptosis in human HCC827 cells assessed as decrease in GSH level incubated for 24 hrs by absorbance based analysis. The data set is classed as functional, cell-based. The following applies: dose 0.5-2 µM.
Data set [16] deals with HCC827. Put plainly: Induction of apoptosis in human HCC827 cells assessed as necrotic cells at 0.25 uM measured after 48 hrs by annexin V and PI staining based flow cytometry analysis (reference value: 1.18%). Format: functional.
In data set [17] the test system is HCC827. Put plainly: Antiproliferative activity against human HCC827 cells assessed as cell viability measured after 48 hrs by MTT assay. The data set is classed as functional, cell-based. Particulars: HCC827, 48 h.
Data set [18] has as its system HCC827. Kind of data set: Antiproliferative activity against human HCC827 cells assessed as cell viability at 1 uM measured after 48 hrs in presence of deferoxamine by MTT assay relative to control. The following applies: read-out: Activity. The data set is classed as functional.
In data set [19] the test system is HCC827. Put plainly: Effect on COX1 expression in human HCC827 cells at 0.25 to 0.5 uM incubated for 24 hrs by Western blot analysis. Format: functional, cell-based. Particulars: dose 0.25-0.5 µM.
A short description of data set [20]: Toxicity in female Kunming mouse assessed as change in body weight at 50 mg/kg, ip measured every two days for 7 days. The data set is classed as organism-based. Particulars: in vivo, 168 h, time 7 day.

The source made the active and inactive calls. The rule behind the calls is not given here.

Consider `Cc1ccc([P+](CCCCCCCCCCO)(c2ccc(C)cc2)c2ccc(C)cc2)cc1.[Br-]`, for which the IC50 in data set [1] was determined as 230 nM; in the data set on NCI-H1650 it was 470 nM; in the data set on HCC827 [17], 120 nM. In addition, the Drug uptake in data set [2] is 93%; in data set [3], “Not_active”. Further, the result in the data set on Mitochondrial membrane [4] and in the data set on HCC827 [19] was Active. In addition, the Activity result was “Dose-dependent-effect” with Mitochondrial membrane [5]; “Dose-dependent-effect” in the data set on HCC827 [6]; “Minimal_effect” in the data set on BEAS-2B; “Time-dependent-effect” in the data set on HCC827 [9]; 3.91% with HCC827 [12]; 24.03% in the data set on HCC827 [13]. In addition, the Activity entry is “Dose-dependent-effect” in the data set with HCC827 [15], 2.91% in the data set with HCC827 [16] and “Toxic” in [20]. In addition, the outcome in the data set on HCC827 [7], with HCC827 [8], with HCC827 [10], in the data set with HCC827 [11] and with HCC827 [14] was inactive. Moreover, the viability at 1 µM in the data set on HCC827 [18] is 51.4%.

The IC50 is the point on the concentration scale where inhibition reaches its midpoint.
